# PMC11589483, “Preparation and anti-colon cancer effect of a novel curcumin analogue (CA8): in vivo and in vitro evaluation” (Frontiers in Pharmacology, 2024)
# Key:
# Caco-2 cells [1] = experiment: Clonogenic assay; format: cell-based, human; settings: 4, 8, or 16 μM/L, 6 h exposure
# Method: Caco-2 cells were seeded into a 6-well plate at a density of 1 × 10^3 cells per well and incubated overnight. Then, the medium was replaced, and CA8 was added at the prescribed concentrations (4, 8, or 16 μM/L). After 6 h, the drug-containing medium was replaced with RPMI 1640 medium.
# Caco-2 cells in 6-well plates were incubated for 1–2 weeks until the appearance of the colonies, followed by staining with crystal violet and incubation for 1 h at room temperature. After staining, images were captured accordingly.
# Caco-2 cells [2] = experiment: Cell cycle analysis (flow cytometry); format: cell-based, human; settings: 4, 8, 16 μM, 24 h
# Method: Caco-2 cells treated with CA8 at dose of 4, 8, or 16 μM/L for 24 h, they were collected, washed with PBS, and fixed in 70% ethanol overnight. The fixed cells were washed twice with PBS, treated with RNase A (10 mg/mL) and resuspended in 50 μg/mL propidium iodide for staining. Finally, the cell cycle distribution was assessed via flow cytometry (BD Biosciences, CA).
# [3] = tested on: normal human liver cell line LO2; experiment: MTT assay, normal liver cells LO2; format: cell-based
# Method: (§1) The human cancer cell lines A549, HepG2, MCF-7, Caco-2, and HeLa and the normal human liver cell line LO2 were all obtained from Shanghai Cell Bank of China. All cells were cultured in RPMI 1640 or DMEM supplemented with 10% fetal bovine serum, 100 U/mL penicillin, and 100 μg/mL streptomycin and incubated at 37°C under 5% CO2 (HEPA incubator class100 Thermo company). The medium was replaced three times a week. Cells used in all were in the exponential growth phase.
# (§2) The cell inhibition rate was evaluated using the MTT assay. Briefly, cells were seeded in a 96-well plate at a density of 3–4 × 10^3 cells per well and incubated at 37°C for 24 h. The MCACs to be tested were dissolved in dimethyl sulfoxide (DMSO, Merck, Germany) and diluted to five concentrations (3.75, 7.5, 15, 30, 60 μM/L) with RPMI 1640 medium, with each dose analyzed in quadruplicate. The concentration of DMSO was always maintained below 1‰, a concentration that is nontoxic to cells. After incubation for 24 or 48 h, MTT reagent (5 mg/mL) was added to each well and the samples were incubated for 3 h at 37°C in the dark. The absorbance of formazan crystals dissolved in 150 µL of DMSO was measured at 570 nm using a microplate reader to identify the cytotoxic effect of the analogues.
# [4] = tested on: breast cancer cells MCF-7; experiment: MTT antiproliferative assay, MCF-7; format: cell-based; settings: Homo sapiens
# Method: as §1, §2
# liver cancer cells HepG2 = experiment: MTT antiproliferative assay, HepG2; format: cell-based; settings: Homo sapiens
# Method: as §1, §2
# KM mice = experiment: Acute toxicity experiment; format: in vivo; design: ALT / AST / ALP / CREA / UA / UREA: unit not given here; settings: for tolerated dose: male, KM, 8 days; for ALP / ALT / AST / CREA / UA / UREA: serum, KM mice, Mean ± SE, n = 3
# Method: All in vivo experimental protocols were approved by the animal care committee of the Southwest Medical University and conducted in strict accordance with the laboratory animal care and use of the adopted guidelines. […] Twenty-one male KM mice were obtained from the Animal Center of Southwest Medical University and subjected to 1 week of acclimatization before the experiment. Then, the mice were randomly divided into the different groups. CA8 was administered via intraperitoneal injection and oral administration to assess its safety. The oral and injection doses were 5, 50, and 300 mg/kg and 2, 10, and 50 mg/kg, respectively. The body weight of all animals was recorded every day, and their blood samples were collected to analyze relevant biochemical indicators on the 8th day of the experiment. The heart, liver, and kidney tissues of the mice were collected, embedded in paraffin, cut into slices, stained with hematoxylin and eosin (HE), and observed under a light microscope to determine potential pathological changes.
# [5] = Pharmacokinetics evaluation after gavage; format: in vivo, Sprague Dawley (SD) rats; settings: SD rats
# Method: After the evaluation of the safety of CA8, 10 male Sprague Dawley (SD) rats were randomly divided into the CA8 and CU groups for the pharmacokinetic test ([Ye et al., 2020]). The rats were subjected to 1 week of adaptation and were fasted for 6 h before the experiment. CA8 (50 mg kg^−1) and CU (50 mg kg^−1) were administered via gavage. Blood samples were collected at 0.03, 0.08, 0.16, 0.25, 0.5, 1, 2, 4, 8 and 12 h and centrifuged at 5,000 rpm for 3 min to obtain the plasma. A mixture of ethyl acetate and methanol was then added to precipitate the proteins and separate the CA8 and CU from the plasma. The samples were then analyzed using HPLC.
# [6] = tested on: cervical cancer cells HeLa; experiment: MTT antiproliferative assay, HeLa; format: cell-based; settings: Homo sapiens
# Method: as §1, §2
smiles,measurement,setting,value
COc1cc(/C=C2\CN(C(C)C)C/C(=C\c3cc(OC)c(O)c(OC)c3)C2=O)cc(OC)c1O [CA8],Caco-2 colony formation,Caco-2 cells [1],showed Caco-2 colony formation inhibition
same,cell cycle arrest,Caco-2 cells [2],induced G2/M phase arrest in a concentration-dependent manner
same,IC50,[3]; 24 h,4.3 ± 0.21 µM
same,IC50,[3]; 48 h,2 ± 0.04 µM
same,IC50,"[4]; MCF7, 24 h",10.9 ± 4.21 µM
same,IC50,"[4]; MCF7, 48 h",7.23 ± 1.55 µM
same,IC50,"liver cancer cells HepG2; HepG2, 24 h",1.79 ± 1.32 µM
same,IC50,"liver cancer cells HepG2; HepG2, 48 h",1.84 ± 0.33 µM
same,liver and kidney histopathology,"KM mice; different doses, HE staining",no significant pathological damage
same,tolerated dose,"KM mice; mouse, in vivo, ip",≤ 50 mg/kg
same,tolerated dose,"KM mice; mouse, in vivo, po",up to 300 mg/kg
same,"morbidity, death, behavior","KM mice; mouse, in vivo",No morbidities and deaths occurred
same,ALP,KM mice; single injection dose 2 mg/kg,220.33 ± 47.16
same,ALT,KM mice; single injection dose 2 mg/kg,59.77 ± 3.00
same,AST,KM mice; single injection dose 2 mg/kg,257.50 ± 114.60
same,CREA,KM mice; single injection dose 2 mg/kg,17.13 ± 3.30
same,UA,KM mice; single injection dose 2 mg/kg,171.93 ± 1.10
same,UREA,KM mice; single injection dose 2 mg/kg,6.84 ± 0.29
same,ALP,KM mice; single injection dose 10 mg/kg,175.93 ± 95.23
same,ALT,KM mice; single injection dose 10 mg/kg,54.87 ± 3.50
same,AST,KM mice; single injection dose 10 mg/kg,100.13 ± 28.26
same,CREA,KM mice; single injection dose 10 mg/kg,11.60 ± 1.60
same,UA,KM mice; single injection dose 10 mg/kg,47.57 ± 14.59
same,UREA,KM mice; single injection dose 10 mg/kg,6.84 ± 0.94
same,ALP,KM mice; single injection dose 50 mg/kg,226.47 ± 65.98
same,ALT,KM mice; single injection dose 50 mg/kg,48.27 ± 2.77
same,AST,KM mice; single injection dose 50 mg/kg,141.83 ± 50.47
same,CREA,KM mice; single injection dose 50 mg/kg,12.13 ± 1.12
same,UA,KM mice; single injection dose 50 mg/kg,55.77 ± 13.47
same,UREA,KM mice; single injection dose 50 mg/kg,9.19 ± 1.02
same,ALP,KM mice; single oral dose 5 mg/kg,208.57 ± 19.55
same,ALT,KM mice; single oral dose 5 mg/kg,49.70 ± 5.25
same,AST,KM mice; single oral dose 5 mg/kg,209.40 ± 69.21
same,CREA,KM mice; single oral dose 5 mg/kg,10.34 ± 0.87
same,UA,KM mice; single oral dose 5 mg/kg,72.27 ± 18.54
same,UREA,KM mice; single oral dose 5 mg/kg,6.70 ± 0.12
same,ALP,KM mice; single oral dose 50 mg/kg,299.77 ± 72.56
same,ALT,KM mice; single oral dose 50 mg/kg,61.30 ± 1.30
same,AST,KM mice; single oral dose 50 mg/kg,269.23 ± 67.81
same,CREA,KM mice; single oral dose 50 mg/kg,12.50 ± 2.78
same,UA,KM mice; single oral dose 50 mg/kg,124.17 ± 19.83
same,UREA,KM mice; single oral dose 50 mg/kg,6.53 ± 0.65
same,ALP,KM mice; single oral dose 300 mg/kg,266.97 ± 26.38
same,ALT,KM mice; single oral dose 300 mg/kg,44.63 ± 11.95
same,AST,KM mice; single oral dose 300 mg/kg,277.57 ± 160.53
same,CREA,KM mice; single oral dose 300 mg/kg,12.90 ± 1.61
same,UA,KM mice; single oral dose 300 mg/kg,128.03 ± 33.61
same,UREA,KM mice; single oral dose 300 mg/kg,7.80 ± 1.27
same,"blood parameters ALT, AST, ALP, CREA, UA, UREA vs control",KM mice; single oral and injection doses,no significant difference
same,AUC (0-t) / bioavailability relative to CU,[5]; oral,6.23 fold
same,MRT (0-t) / mean residence time relative to CU,[5]; oral,3.35 fold
same,biological half-life relative to CU,[5]; oral,2.38 fold
same,time after dosing until cleared from / still detected in plasma,[5]; oral 50 mg kg^−1,> 8 h
same,AUC(0-t),[5]; oral (gavage) 50 mg kg^−1,"222,562.75 μg/L*min"
same,CLz,[5]; oral (gavage) 50 mg kg^−1,190 mL/min/kg
same,Vz,[5]; oral (gavage) 50 mg kg^−1,49.53 L/kg
same,Cmax,"[5]; male, Sprague Dawley, rat, plasma, oral (gavage) 50 mg kg^−1",1360 ng/mL
same,MRT last,"[5]; male, Sprague Dawley, rat, plasma, oral (gavage) 50 mg kg^−1, read-out: MRT(0-t) (converted)",3.02 h
same,Tmax,"[5]; male, Sprague Dawley, rat, plasma, oral (gavage) 50 mg kg^−1, read-out: Tmax (converted)",0.167 h
same,half-life,"[5]; male, Sprague Dawley, rat, plasma, oral (gavage) 50 mg kg^−1, read-out: t1/2z",2.98 h
same,IC50,[6]; 24 h,4.26 ± 0.52 µM
same,IC50,[6]; 48 h,1.96 ± 0.09 µM
